Reference: PubChem BioAssay (NCI)
Values joined by “and” are separate entries in the source; they are usually repeats but may differ in a detail not shown here. Equal values may be shown once.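 Compound exposure: 48 hours, 5 concentrations, 96-well plates. GI50 = concentration required for 50% inhibition of growth. TGI: total growth inhibition.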

Columns and labels:
Assay in all cases: DTP human tumour cell line panel, 48 h
HCT-116 colon = test system: HCT-116 colon
MCF7 breast = test system: MCF7 breast
HOP-62 NSCLC = test system: HOP-62 NSCLC
MDA-MB-231 breast = test system: MDA-MB-231 breast
KM12 colon = test system: KM12 colon
OVCAR-8 ovarian = test system: OVCAR-8 ovarian
SNB-75 CNS = test system: SNB-75 CNS
SW-620 colon = test system: SW-620 colon
MALME-3M melanoma = test system: MALME-3M melanoma
NCI-H226 lung = test system: NCI-H226 lung
A498 renal = test system: A498 renal
MDA-MB-435 = test system: MDA-MB-435
IGROV1 ovarian = test system: IGROV1 ovarian
SK-MEL-2 melanoma = test system: SK-MEL-2 melanoma
K-562 leukemia = test system: K-562 leukemia
HL-60(TB) leukemia = test system: HL-60(TB) leukemia
SK-MEL-5 melanoma = test system: SK-MEL-5 melanoma
BT-549 breast = test system: BT-549 breast
SK-MEL-28 melanoma = test system: SK-MEL-28 melanoma
COLO 205 colon = test system: COLO 205 colon
LOX IMVI melanoma = test system: LOX IMVI melanoma
RXF 393 renal = test system: RXF 393 renal
DU-145 prostate = test system: DU-145 prostate
OVCAR-5 ovarian = test system: OVCAR-5 ovarian
CAKI-1 renal = test system: CAKI-1 renal
SF-539 CNS = test system: SF-539 CNS
SNB-19 CNS = test system: SNB-19 CNS
UACC-257 melanoma = test system: UACC-257 melanoma
MOLT-4 leukemia = test system: MOLT-4 leukemia
U251 CNS = test system: U251 CNS
MDA-N = test system: MDA-N
NCI/ADR-RES ovarian = test system: NCI/ADR-RES ovarian
TK-10 renal = test system: TK-10 renal
SK-OV-3 ovarian = test system: SK-OV-3 ovarian
T-47D breast = test system: T-47D breast
HOP-92 NSCLC = test system: HOP-92 NSCLC
M14 melanoma = test system: M14 melanoma
HCT-15 colon = test system: HCT-15 colon
NCI-H460 lung = test system: NCI-H460 lung
A549 NSCLC = test system: A549 NSCLC
786-0 renal = test system: 786-0 renal
SN12C renal = test system: SN12C renal
NCI-H23 lung = test system: NCI-H23 lung
OVCAR-4 ovarian = test system: OVCAR-4 ovarian
SF-268 CNS = test system: SF-268 CNS
ACHN renal = test system: ACHN renal
HS 578T breast = test system: HS 578T breast
NCI-H522 lung = test system: NCI-H522 lung
PC-3 prostate = test system: PC-3 prostate
EKVX NSCLC = test system: EKVX NSCLC
HCC-2998 colon = test system: HCC-2998 colon
UACC-62 melanoma = test system: UACC-62 melanoma
HT29 colon = test system: HT29 colon
OVCAR-3 ovarian = test system: OVCAR-3 ovarian
UO-31 renal = test system: UO-31 renal
SR leukemia = test system: SR leukemia
CCRF-CEM leukemia = test system: CCRF-CEM leukemia
RPMI-8226 leukemia = test system: RPMI-8226 leukemia
SF-295 CNS = test system: SF-295 CNS

CC1=C2O[C@]3(O)C=C2C(=C(O)C1=O)[C@@H]1O[C@H](CC[C@H](C)/C=C(\C)C[C@@H](C)C[C@@H]3C)[C@H](C)[C@H](O)[C@H]1C was tested, and the GI50 (HCT-116 colon) was 201 nM, the TGI (HCT-116 colon) was 486 nM and 436 nM and the TGI (MCF7 breast) was 556 nM and 395 nM. The GI50 (HOP-62 NSCLC) was 1390 nM, the TGI (HOP-62 NSCLC) was 709 nM and 3150 nM and the GI50 (MDA-MB-231 breast) was 285 nM. The TGI (MDA-MB-231 breast) was 352 nM and 830 nM, the GI50 (KM12 colon) was 376 nM and the TGI (KM12 colon) was 1750 nM and 1270 nM. The GI50 (OVCAR-8 ovarian) was 169 nM and 234 nM, the TGI (OVCAR-8 ovarian) was 472 nM and 597 nM and the GI50 (SNB-75 CNS) was 603 nM. For the same compound, the TGI (SNB-75 CNS) was 897 nM and 1350 nM, the TGI (SW-620 colon) was 3470 nM and the TGI (MALME-3M melanoma) was 480 nM and 334 nM. The GI50 (NCI-H226 lung) was 935 nM, the TGI (NCI-H226 lung) was 2120 nM and 2390 nM and the GI50 (A498 renal) was 177 nM. For the same compound, the TGI (A498 renal) was 694 nM and 2930 nM, the GI50 (MDA-MB-435) was 199 nM and the TGI (MDA-MB-435) was 325 nM and 429 nM. The GI50 (IGROV1 ovarian) was 272 nM, the TGI (IGROV1 ovarian) was 324 nM and 664 nM and the GI50 (SK-MEL-2 melanoma) was 282 nM. The TGI (SK-MEL-2 melanoma) was 851 nM and 703 nM, the TGI (K-562 leukemia) was 4870 nM and the GI50 (HL-60(TB) leukemia) was 203 nM. For the same compound, the TGI (HL-60(TB) leukemia) was 617 nM, the GI50 (SK-MEL-5 melanoma) was 777 nM and the TGI (SK-MEL-5 melanoma) was 1660 nM and 1710 nM. For the same compound, the GI50 (BT-549 breast) was 878 nM, the TGI (BT-549 breast) was 863 nM and 2150 nM and the TGI (SK-MEL-28 melanoma) was 662 nM and 588 nM. The GI50 (COLO 205 colon) was 165 nM, the TGI (COLO 205 colon) was 256 nM and 313 nM and the GI50 (LOX IMVI melanoma) was 274 nM. For the same compound, the TGI (LOX IMVI melanoma) was 793 nM and 739 nM, the TGI (RXF 393 renal) was 434 nM and the TGI (DU-145 prostate) was 1030 nM and 659 nM. For the same compound, the GI50 (OVCAR-5 ovarian) was 767 nM, the TGI (OVCAR-5 ovarian) was 3190 nM and 2080 nM and the GI50 (CAKI-1 renal) was 295 nM. For the same compound, the TGI (CAKI-1 renal) was 1660 nM and 780 nM, the GI50 (SF-539 CNS) was 240 nM and the TGI (SF-539 CNS) was 384 nM and 580 nM. For the same compound, the GI50 (SNB-19 CNS) was 1580 nM, the TGI (SNB-19 CNS) was 1980 nM and 3110 nM and the GI50 (UACC-257 melanoma) was 412 nM. The TGI (UACC-257 melanoma) was 860 nM and 2340 nM, the GI50 (MOLT-4 leukemia) was 174 nM and the TGI (MOLT-4 leukemia) was 2340 nM and 688 nM. The GI50 (U251 CNS) was 288 nM, the TGI (U251 CNS) was 1160 nM and 752 nM and the GI50 (MDA-N) was 204 nM. The TGI (MDA-N) was 398 nM and 446 nM, the GI50 (NCI/ADR-RES ovarian) was 559 nM and the TGI (NCI/ADR-RES ovarian) was 1350 nM and 2680 nM. For the same compound, the GI50 (TK-10 renal) was 336 nM, the TGI (TK-10 renal) was 372 nM and 1160 nM and the GI50 (SK-OV-3 ovarian) was 1720 nM. The TGI (SK-OV-3 ovarian) was 2130 nM and 3110 nM, the GI50 (T-47D breast) was 105 nM and 184 nM and the TGI (T-47D breast) was 230 nM and 361 nM. For the same compound, the GI50 (HOP-92 NSCLC) was 177 nM, the TGI (HOP-92 NSCLC) was 273 nM and 377 nM and the GI50 (M14 melanoma) was 220 nM. The TGI (M14 melanoma) was 363 nM and 526 nM, the GI50 (HCT-15 colon) was 180 nM and the TGI (HCT-15 colon) was 289 nM and 406 nM. For the same compound, the GI50 (NCI-H460 lung) was 1420 nM, the TGI (NCI-H460 lung) was 1820 nM and the GI50 (A549 NSCLC) was 1610 nM. The TGI (A549 NSCLC) was 2080 nM and 3390 nM, the GI50 (786-0 renal) was 180 nM and the TGI (786-0 renal) was 324 nM and 342 nM. For the same compound, the GI50 (SN12C renal) was 495 nM, the TGI (SN12C renal) was 2150 nM and 1940 nM and the GI50 (NCI-H23 lung) was 563 nM. The TGI (NCI-H23 lung) was 1170 nM and 1880 nM, the GI50 (OVCAR-4 ovarian) was 229 nM and the TGI (OVCAR-4 ovarian) was 560 nM and 637 nM. The GI50 (SF-268 CNS) was 303 nM, the TGI (SF-268 CNS) was 1140 nM and 892 nM and the GI50 (ACHN renal) was 182 nM. The TGI (ACHN renal) was 239 nM and 323 nM, the TGI (HS 578T breast) was 1490 nM and the TGI (NCI-H522 lung) was 321 nM. For the same compound, the TGI (PC-3 prostate) was 1050 nM and 637 nM, the TGI (EKVX NSCLC) was 939 nM and 910 nM and the GI50 (HCC-2998 colon) was 330 nM. The TGI (HCC-2998 colon) was 384 nM and 1160 nM, the GI50 (UACC-62 melanoma) was 356 nM and the TGI (UACC-62 melanoma) was 695 nM and 1160 nM. The GI50 (HT29 colon) was 216 nM, the TGI (HT29 colon) was 529 nM and 504 nM and the GI50 (OVCAR-3 ovarian) was 187 nM. For the same compound, the TGI (OVCAR-3 ovarian) was 355 nM and 394 nM, the GI50 (UO-31 renal) was 232 nM and the TGI (UO-31 renal) was 548 nM and 654 nM. It also gave a TGI (SR leukemia) of 4180 nM, a GI50 (CCRF-CEM leukemia) of 33.9 nM and a TGI (CCRF-CEM leukemia) of 296 nM. For the same compound, the TGI (RPMI-8226 leukemia) was 378 nM and 582 nM, the GI50 (SF-295 CNS) was 1640 nM and the TGI (SF-295 CNS) was 2300 nM and 3110 nM.
